Key:
Format in all cases: in vivo, human
[1] = test system: sweetness of a reference water solution containing 4% sucrose (sucrose base); assay: Sensory panel of 25 trained panelists, sweet taste modifying effect in 4% sucrose, with nose-clip; settings: for enhancement of the sweetness of the sucrose base (in words): 5 ppm; for Significant level Student test (NC) / sweetness, With nose-clip (NC): 5 ppm in 4% sucrose; for Significant level Student test (NC): sweetness, with nose-clip; for sweetness, With nose-clip (NC): scale of −5 (strong masking) to 5 (strong enhancing), 0 = sucrose base
Source text: (§1) The taste of a sample of a composition according to several aspects presented herein, with regard to sweetness and/or sweetness enhancing properties, may be assessed in vivo by using a panel of trained sensory evaluators experienced in the sweet taste estimation procedure, e.g. in the sensory assay described e.g. in Examples 1 and 2, using a test base comprising a 4% sucrose solution, or similar composition.
(§2) In sensory studies, panelists are asked to take a sample of the liquid to be assessed (test substance, e.g. the test base comprising a composition according to several aspects presented herein) into the mouth and after some time allowed for taste perception, to spit the sample out completely. Subsequently, the panelists are asked to rinse their mouth well with water or black tea to reduce any potential carry over effects. The tasting of a sample can be repeated if required.
Sensory Evaluations: A sensory panel consisted of 25 trained panelists. The panelists were asked to evaluate the sweet taste modifying effect of the isolated individual polymethoxyflavones in a reference water solution containing 4% sucrose. The panelists evaluated samples containing TMS, HMQ, NOB, HMF, TAN and SIN (all at 5 ppm), and a mixture comprising a mixture of polymethoxyflavones (PMF mixture at 10 ppm), for taste properties (sweet) on a scale of −5 to 5 (−5 denoted strong masking effect and 5 denoted strong enhancing effect, 0 being the intensity of a reference water solution containing 4% sucrose—referred to herein as the sucrose base).

[2] = test system: sweetness of a reference water solution containing 4% sucrose (sucrose base); assay: Additional sensory evaluation, 8 trained panelists, dose series in 4% sucrose
Source text: as §1, §2
Additional Sensory Evaluations: A sensory panel consisted of 8 trained panelists. The panelists were asked to evaluate the sweet taste modifying effect of 0.001, 0.1, 1, 2, and 20 ppm of either TMS, HMQ, or NOB in a reference water solution containing 4% sucrose, on a scale of −5 to 5 (−5 denoted strong masking effect and 5 denoted strong enhancing effect, 0 being the intensity of a reference water solution containing 4% sucrose—referred to herein as the sucrose base).

[3] = test system: sweetness of a reference water solution containing 4% sucrose; assay: Additional sensory evaluation, 8 trained panelists, TMS, HMQ and TMS:HMQ mixtures in different ratio; settings: for significance of sweetness enhancement: Low sugar beverage (4% sucrose)
Source text: as §1, §2
A sensory panel consisted of 8 trained panelists. The panelists were asked to evaluate the sweet taste modifying effect of 0.5, 1, 2 ppm of either TMS or HMQ as well as 1, 1.5, 2 ppm of TMS and HMQ mixture in different ratio in a reference water solution containing 4% sucrose.

[4] = test system: sweetness of reduce sugar fruit tea beverage; assay: Additional sensory evaluation, 8 trained panelists, fruit tea beverage; set-up: significance of sweetness enhancement: key to the marks not given beside the values
Source text: as §1, §2
Additional Sensory Evaluations: A sensory panel consisted of 8 trained panelists. The panelists were asked to evaluate the sweet taste modifying effect of 0.001, 2 and 20 ppm of PMF mixture and 0.2 ppm of TMS, 0.1 ppm of HMQ, and 0.3 ppm of the mixture of TMS and HMQ at ratio of 2 to 1 in a reference low sugar fruit tea beverage solution as well as standard sugar fruit tea beverage solution.

[5] = at 0.1 and 0.001 ppm in 4% sucrose
[6] = at doses less than or equal to 2 ppm in 4% sucrose

SMILES	enhancement of the sweetness of the sucrose base (in words) [1]	Significant level Student test (NC) [1]	sweetness, With nose-clip (NC) [1]	significance of sweetness enhancement ([2]; 0.001 ppm in 4% sucrose)	significance of sweetness enhancement ([2]; 0.1 ppm in 4% sucrose)	significance of sweetness enhancement ([2]; 1 ppm in 4% sucrose)	significance of sweetness enhancement ([2]; 2 ppm in 4% sucrose)	sweetness enhancement effect (in words) [2, 5]	sweetness enhancement effect (in words) [2, 6]	significance of sweetness enhancement ([3]; 1 ppm)	significance of sweetness enhancement ([3]; 2 ppm)	significance of sweetness enhancement ([4]; +0.2 ppm in reduce sugar fruit tea beverage)	sweetness enhancing properties (in words) ([2]; 0.001 to 20 ppm in 4% sucrose, in contrast to TMS and HMQ)	significance of sweetness enhancement ([2]; 20 ppm in 4% sucrose)	significance of sweetness enhancement ([3]; 0.5 ppm)	sweetness enhancement effect (in words) ([3]; 1 ppm)	sweetness enhancement effect (in words) ([4]; 0.1 ppm in reduce sugar fruit tea beverage)
COc1ccc(-c2cc(=O)c3c(OC)c(OC)c(OC)cc3o2)cc1 [TMS, 5,6,7,4′-tetramethoxyflavone]	significantly enhance the sweetness of the sucrose base	++	0.55	++	++	++	+	significant sweetness enhancement effect	better sweetness enhancement effect	++	+	++					
COc1ccc(-c2cc(=O)c3c(OC)c(OC)c(OC)cc3o2)cc1OC [SIN, 5,6,7,3′,4′-pentamethoxyflavone]	Neither HMF, nor SIN had any observable enhancement of sweetness		0.17														
COc1ccc(-c2cc(=O)c3c(OC)c(OC)c(OC)c(OC)c3o2)cc1OC [NOB, 5,6,7,8,3′,4′-hexamethoxyflavone, reference compound]	significantly enhance the sweetness of the sucrose base	++	0.37	++		++							less significant	++			
COc1ccc(-c2cc(=O)c3c(OC)c(OC)c(OC)c(OC)c3o2)cc1 [TAN, 5,6,7,8,4′-pentamethoxyflavone]	negative effect of sweetness	−	−0.30														
COc1ccc(-c2oc3c(OC)c(OC)c(OC)c(OC)c3c(=O)c2OC)cc1OC [HMF, 3,5,6,7,8,3′,4′-heptamethoxyflavone]	Neither HMF, nor SIN had any observable enhancement of sweetness		0.21														
COc1ccc(-c2oc3cc(OC)c(OC)c(OC)c3c(=O)c2OC)cc1OC [HMQ, 3,5,6,7,3′,4′-hexamethoxyflavone]	significantly enhance the sweetness of the sucrose base	++	0.57	+++	++		++	significant sweetness enhancement effect	better sweetness enhancement effect		++				++	did not show any observable sweetness enhancement effect	did not show the sweetness enhancement effect
